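Following 48 hours of exposure in 96-well plates, responses at five concentrations were used to interpolate endpoints linearly. The concentration for 50% growth inhibition is given as GI50.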 The source made the active and inactive calls. No stated cut-off is given here; in the data, active = GI50 up to about 1.1 µM and inactive = higher.
Experiments:
Test in all cases: NCI-60 cell line screen, 48 h
786-0 = tested on: 786-0
A498 = tested on: A498
A549 = tested on: A549
ACHN = tested on: ACHN
BT-549 = tested on: BT-549
CAKI-1 = tested on: CAKI-1
CCRF-CEM = tested on: CCRF-CEM
COLO 205 = tested on: COLO 205
DLD-1 = tested on: DLD-1
DMS-114 = tested on: DMS-114
DMS-273 = tested on: DMS-273
DU-145 = tested on: DU-145
EKVX = tested on: EKVX
HCC 2998 = tested on: HCC 2998
HCT-116 = tested on: HCT-116
HCT-15 = tested on: HCT-15
HL-60 = tested on: HL-60
HOP-18 = tested on: HOP-18
HOP-62 = tested on: HOP-62
HOP-92 = tested on: HOP-92
HT-29 = tested on: HT-29
Hs-578T = tested on: Hs-578T
IGROV-1 = tested on: IGROV-1
K562 = tested on: K562
KM-20L2 = tested on: KM-20L2
KM12 = tested on: KM12
LOX IMVI = tested on: LOX IMVI
LXFL 529 = tested on: LXFL 529
M14 = tested on: M14
M19-MEL = tested on: M19-MEL
MCF7 = tested on: MCF7
MDA-MB-231 = tested on: MDA-MB-231
MDA-MB-435 = tested on: MDA-MB-435
MDA-N = tested on: MDA-N
MOLT-4 = tested on: MOLT-4
Malme-3M = tested on: Malme-3M
NCI-H226 = tested on: NCI-H226
NCI-H23 = tested on: NCI-H23
NCI-H460 = tested on: NCI-H460
NCI-H522 = tested on: NCI-H522
NCI/ADR-RES = tested on: NCI/ADR-RES
OVCAR-4 = tested on: OVCAR-4
OVCAR-5 = tested on: OVCAR-5
OVCAR-8 = tested on: OVCAR-8
PC-3 = tested on: PC-3
RPMI-8226 = tested on: RPMI-8226
RXF 393 = tested on: RXF 393
SF-268 = tested on: SF-268
SF-295 = tested on: SF-295
SF-539 = tested on: SF-539
SK-MEL-28 = tested on: SK-MEL-28
SK-MEL-2 = tested on: SK-MEL-2
SK-MEL-5 = tested on: SK-MEL-5
SK-OV-3 = tested on: SK-OV-3
SN12C = tested on: SN12C
SNB-19 = tested on: SNB-19
SNB-75 = tested on: SNB-75
SNB-78 = tested on: SNB-78
SR = tested on: SR
SW-620 = tested on: SW-620
T47D = tested on: T47D
TK-10 = tested on: TK-10
U-251 = tested on: U-251
UACC-257 = tested on: UACC-257
UACC-62 = tested on: UACC-62
UO-31 = tested on: UO-31
XF498 = tested on: XF498
OVCAR-3 = tested on: OVCAR-3
RXF 631 = tested on: RXF 631

Measured: GI50

C/C(=N\NC(=S)N1CCN(c2ccccn2)CC1)c1ncccn1
inactive: A498 2.07 µM | BT-549 4.67 µM | CAKI-1 1.76 µM | DU-145 2.51 µM | HOP-18 1.64 µM | HOP-92 1.63 µM | Hs-578T 1.87 µM | MDA-MB-435 2.83 µM | MDA-N 6.93 µM | PC-3 4.37 µM | RXF 393 1.65 µM | SNB-19 2.56 µM | SNB-75 3.43 µM | SNB-78 6.05 µM | TK-10 2.67 µM
0.02 µM: HCT-15
active: 786-0 0.0601 µM | A549 0.166 µM | ACHN 0.0693 µM | CCRF-CEM 0.00615 µM | COLO 205 0.0569 µM | DLD-1 0.00272 µM | DMS-114 0.00233 µM | DMS-273 0.0114 µM | EKVX 0.291 µM | HCC 2998 0.361 µM | HCT-116 0.00395 µM | HL-60 0.00752 µM | HOP-62 0.106 µM | HT-29 0.0161 µM | IGROV-1 0.00275 µM | K562 0.00711 µM | KM-20L2 0.00984 µM | KM12 0.254 µM | LOX IMVI 0.0986 µM | LXFL 529 0.001 µM | M14 0.0515 µM | M19-MEL 0.638 µM | MCF7 0.0108 µM | MDA-MB-231 0.0214 µM | MOLT-4 0.0116 µM | Malme-3M 0.267 µM | NCI-H226 0.216 µM | NCI-H23 < 0.0288 µM | NCI-H460 0.0726 µM | NCI-H522 0.0538 µM | NCI/ADR-RES 0.0179 µM | OVCAR-4 0.205 µM | OVCAR-5 0.0303 µM | OVCAR-8 0.0289 µM | RPMI-8226 0.0131 µM | SF-268 0.0323 µM | SF-295 0.0594 µM | SF-539 0.527 µM | SK-MEL-28 0.417 µM | SK-MEL-2 0.31 µM | SK-MEL-5 0.109 µM | SK-OV-3 0.284 µM | SN12C 0.566 µM | SR 0.0863 µM | SW-620 0.196 µM | T47D 0.0953 µM | U-251 0.0369 µM | UACC-257 0.0165 µM | UACC-62 0.0344 µM | UO-31 0.993 µM | XF498 0.0247 µM

COc1ccc(-c2cc(-c3ccccc3)c(C#N)c(=O)n2C2OC(CO)C(O)C(O)C2O)cc1 (stereo unspecified)
inactive: 786-0 > 100 µM | A498 > 100 µM | A549 > 100 µM | ACHN > 100 µM | CCRF-CEM > 100 µM | COLO 205 > 100 µM | DLD-1 > 100 µM | DMS-114 > 100 µM | DMS-273 > 100 µM | EKVX > 100 µM | HCC 2998 > 100 µM | HCT-116 > 100 µM | HL-60 > 100 µM | HOP-18 > 100 µM | HOP-62 > 100 µM | HT-29 > 100 µM | IGROV-1 > 100 µM | K562 > 100 µM | KM-20L2 > 100 µM | KM12 > 100 µM | LOX IMVI > 100 µM | LXFL 529 > 100 µM | M14 > 100 µM | M19-MEL > 100 µM | MOLT-4 > 100 µM | Malme-3M > 100 µM | NCI-H226 > 100 µM | NCI-H23 > 100 µM | NCI-H460 > 100 µM | NCI-H522 > 100 µM | OVCAR-3 > 100 µM | OVCAR-4 > 100 µM | OVCAR-5 > 100 µM | OVCAR-8 > 100 µM | RPMI-8226 > 100 µM | RXF 393 > 100 µM | RXF 631 > 100 µM | SF-268 > 100 µM | SF-295 > 100 µM | SF-539 > 100 µM | SK-MEL-28 > 100 µM | SK-MEL-5 > 100 µM | SK-OV-3 > 100 µM | SN12C > 100 µM | SNB-19 > 100 µM | SNB-78 > 100 µM | SR > 100 µM | SW-620 > 100 µM | TK-10 > 100 µM | U-251 > 100 µM | UACC-257 > 100 µM | UACC-62 > 100 µM | UO-31 > 100 µM
> 100 µM: HCT-15

O=C1NCCS(=O)(=O)N2CCC[C@@H]12
> 100 µM: HCT-15
inactive: 786-0 > 100 µM | A498 > 100 µM | A549 > 100 µM | ACHN > 100 µM | CAKI-1 > 100 µM | CCRF-CEM > 100 µM | COLO 205 > 100 µM | DLD-1 > 100 µM | DMS-114 > 100 µM | EKVX > 100 µM | HCC 2998 > 100 µM | HCT-116 > 100 µM | HL-60 > 100 µM | HOP-18 > 100 µM | HOP-62 > 100 µM | HOP-92 > 100 µM | HT-29 > 100 µM | IGROV-1 > 100 µM | K562 > 100 µM | KM-20L2 > 100 µM | KM12 > 100 µM | LOX IMVI > 100 µM | LXFL 529 > 100 µM | M14 > 100 µM | M19-MEL > 100 µM | MOLT-4 > 100 µM | Malme-3M > 100 µM | NCI-H226 60.3 µM | NCI-H23 > 100 µM | NCI-H460 > 100 µM | NCI-H522 > 100 µM | OVCAR-3 > 100 µM | OVCAR-4 > 100 µM | OVCAR-5 > 100 µM | OVCAR-8 > 100 µM | RPMI-8226 > 100 µM | RXF 393 > 100 µM | RXF 631 > 100 µM | SF-268 > 100 µM | SF-295 > 100 µM | SF-539 > 100 µM | SK-MEL-28 > 100 µM | SK-MEL-5 > 100 µM | SK-OV-3 > 100 µM | SN12C > 100 µM | SNB-19 > 100 µM | SNB-75 > 100 µM | SNB-78 > 100 µM | SR > 100 µM | SW-620 > 100 µM | TK-10 > 100 µM | U-251 > 100 µM | UACC-257 > 100 µM | UACC-62 > 100 µM | UO-31 > 100 µM

CCOc1ccc([Se][Se]c2ccc(OCC)cc2)cc1
inactive: 786-0 > 100 µM | A549 > 100 µM | CAKI-1 21 µM | COLO 205 > 100 µM | DLD-1 > 100 µM | DMS-114 20.7 µM | DMS-273 79.1 µM | EKVX > 100 µM | HCC 2998 > 100 µM | HCT-116 56.1 µM | HOP-18 > 100 µM | IGROV-1 94.4 µM | KM-20L2 > 100 µM | KM12 > 100 µM | LXFL 529 26 µM | M14 > 100 µM | M19-MEL 25.6 µM | Malme-3M > 100 µM | NCI-H226 44.2 µM | NCI-H23 11.5 µM | NCI-H460 > 100 µM | NCI-H522 46 µM | OVCAR-3 > 100 µM | OVCAR-4 > 100 µM | OVCAR-5 18.8 µM | OVCAR-8 > 100 µM | RPMI-8226 28.1 µM | RXF 393 35.5 µM | RXF 631 44.5 µM | SF-268 70.1 µM | SF-295 > 100 µM | SF-539 > 100 µM | SK-MEL-28 > 100 µM | SK-MEL-2 > 100 µM | SN12C > 100 µM | SNB-19 > 100 µM | SNB-75 96.4 µM | SNB-78 32.7 µM | SR > 100 µM | SW-620 > 100 µM | TK-10 > 100 µM | U-251 26.9 µM | UACC-62 95.7 µM | UO-31 27.5 µM
82.4 µM: HCT-15

CC(=O)OCC12CC(CC1OC(C)=O)c1ccccc12 (stereo unspecified)
> 100 µM: HCT-15
inactive: 786-0 > 100 µM | A498 > 100 µM | A549 > 100 µM | ACHN > 100 µM | CAKI-1 > 100 µM | CCRF-CEM > 100 µM | COLO 205 > 100 µM | DMS-114 > 100 µM | DMS-273 > 100 µM | HCC 2998 > 100 µM | HCT-116 > 100 µM | HL-60 > 100 µM | HOP-18 > 100 µM | HOP-62 > 100 µM | HOP-92 > 100 µM | HT-29 > 100 µM | IGROV-1 > 100 µM | K562 > 100 µM | KM-20L2 > 100 µM | LOX IMVI > 100 µM | LXFL 529 > 100 µM | M14 > 100 µM | M19-MEL > 100 µM | MOLT-4 > 100 µM | Malme-3M > 100 µM | NCI-H226 > 100 µM | NCI-H23 > 100 µM | NCI-H460 > 100 µM | OVCAR-3 > 100 µM | OVCAR-4 > 100 µM | OVCAR-5 > 100 µM | OVCAR-8 > 100 µM | RPMI-8226 > 100 µM | RXF 631 > 100 µM | SF-268 > 100 µM | SF-295 > 100 µM | SK-MEL-28 > 100 µM | SK-MEL-5 > 100 µM | SK-OV-3 > 100 µM | SN12C > 100 µM | SNB-19 > 100 µM | SR > 100 µM | SW-620 > 100 µM | TK-10 > 100 µM | U-251 > 100 µM | UACC-257 > 100 µM | UACC-62 > 100 µM | UO-31 > 100 µM

From ChEMBL document CHEMBL1201862, “PubChem BioAssay data set” (2004)
